In the supplement of paper PMC10307832:

Experiments:
Assay in all cases: relative viability (nuclei count vs DMSO), 5 days (fraction); higher = more cells survive
[1] = compound: C1=CC=C2C(=C1)N=C(S2)C(C#N)C3=NC(=NC=C3)NCCC4=CN=CC=C4 + CS(=O)(=O)N1CCN(Cc2cc3nc(-c4cccc5[nH]ncc45)nc(N4CCOCC4)c3s2)CC1 [Pictilisib] (partner 1 µM)
In short: (§1)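 One day after seeding in 1536-well plates, lung cancer cell lines were dosed by pin tool. Dosing was either single-drug or a fixed anchor-drug dose plus five library-drug doses (not always all listed) in √10 steps. After 5 days, nuclei were stained in one fix-and-stain step and counted on 4× images, and relative viability is the nuclei count of treated wells over that of vehicle wells, given as the median of duplicate plates.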

[2] = compound: C1=CC=C2C(=C1)N=C(S2)C(C#N)C3=NC(=NC=C3)NCCC4=CN=CC=C4 + C[C@@H](Oc1cc(-c2cnn(C3CCNCC3)c2)cnc1N)c1c(Cl)ccc(F)c1Cl [Crizotinib] (partner 1 µM)
In short: as §1

[3] = compound: COc1cc2/c(=N/c3ccc(Br)cc3F)nc[nH]c2cc1OCC1CCN(C)CC1 [Vandetanib] + C[C@@H](Oc1cc(-c2cnn(C3CCNCC3)c2)cnc1N)c1c(Cl)ccc(F)c1Cl [Crizotinib] (partner 1 µM)
In short: as §1

[4] = compound: COc1cc2/c(=N/c3ccc(Br)cc3F)nc[nH]c2cc1OCC1CCN(C)CC1 [Vandetanib] + Cc1nc(Nc2ncc(C(=O)Nc3c(C)cccc3Cl)s2)cc(N2CCN(CCO)CC2)n1 [Dasatinib] (partner 0.075 µM)
In short: as §1

Cell Line	relative viability ([1]; first compound 0.005 µM)	relative viability ([1]; first compound 0.01581 µM)	relative viability ([1]; first compound 0.05 µM)	relative viability ([1]; first compound 0.1581 µM)	relative viability ([1]; first compound 0.5 µM)	relative viability ([2]; first compound 0.005 µM)	relative viability ([2]; first compound 0.01581 µM)	relative viability ([2]; first compound 0.05 µM)	relative viability ([2]; first compound 0.1581 µM)	relative viability ([2]; first compound 0.5 µM)	relative viability ([3]; first compound 0.02 µM)	relative viability ([3]; first compound 0.06325 µM)	relative viability ([3]; first compound 0.2 µM)	relative viability ([3]; first compound 0.6325 µM)	relative viability ([3]; first compound 2 µM)	relative viability ([4]; first compound 0.02 µM)	relative viability ([4]; first compound 0.06325 µM)	relative viability ([4]; first compound 0.2 µM)	relative viability ([4]; first compound 0.6325 µM)	relative viability ([4]; first compound 2 µM)
HCC-366	0.138	0.196	0.181	0.159	0.117	0.24	0.458	0.564	0.844	0.378	0.617	0.569	0.608	0.609	0.518	0.6	0.625	0.663	0.561	0.637
NCI-H1437	0.474	0.39	0.398	0.539	0.361	0.66	1.09	0.932	1.09	0.679	0.842	0.894	0.895	0.958	0.954	0.401	0.45	0.254	0.405	0.222
EPLC-272H	0.271	0.277	0.288	0.352	0.267	0.852	0.97	0.868	0.94	0.795	1.01	0.732	0.961	0.845	0.917	0.301		0.415	0.352	0.321
NCI-H1703	0.242	0.223	0.218	0.261	0.252	0.666	0.684	0.536	0.542	0.458	0.672		0.515	0.547	0.234					
HCC-15	0.733	0.74	0.72	0.855	0.685	0.734	0.851	0.833	1.02	0.776	0.837	0.793	0.855	0.826	0.821	0.583	0.572	0.632	0.639	0.606
NCI-H2347	0.474	0.695	0.659	0.756	0.609	0.724	0.669	0.533	0.699	0.723	0.665	0.56	0.737	0.789	0.718	0.299		0.312	0.323	0.345
COR-L 105	0.345	0.367	0.384	0.516	0.428	0.679	0.815	0.699	0.628	0.728	0.851	0.839	0.729	0.731	0.248	0.337	0.322	0.271	0.281	0.184
NCI-H1650	0.488	0.529	0.559	0.723	0.471	0.609	0.852	0.865	1.01	0.57	0.943	0.806		0.736	0.581	0.322	0.275	0.322	0.292	0.305
